# Laboratory results from US10752615B2, “Spirocyclic containing compounds and pharmaceutical uses thereof” (GB005, Inc., priority 2016, dated 2020).
# How the values were obtained:
# [1] = tested on: PBMC stimulated with anti-CD3 and anti-CD28 antibodies; test: CD3/CD28 mediated PBMC proliferation assay; details: Homo sapiens, 72 h, read-out: CD3/CD28 PMBC proliferation IC50 (nM)
# Procedure: Individual wells of 96 well tissue culture plates were coated with 50 μL of 5 μg/mL anti-CD3 (OKT3, eBiosciences) overnight at 4° C. Human blood was collected in EDTA containing vacutainer tubes. […] The cells were placed in a humidified 37° C. incubator for 72 hours. Controls included unstimulated cells and media alone.
# [2] = target: BTK (Homo sapiens (Human), UniProt Q06187); test: Kinase inhibition assay (Nanosyn, microfluidic detection), BTK; format: biochemical; details: 1 mM ATP, 3 hours at 25° C.
# [3] = tested on: experimental autoimmune encephalomyelitis (EAE); test: Experimental autoimmune encephalomyelitis (EAE) model of multiple sclerosis; format: in vivo, female C57BL/6 mice; details: oral gavage once daily, 30 mg/kg
# Procedure: TEC kinases play important roles in immune cells and pathogenic microglia in multiple sclerosis. The efficacy of compound 16 was evaluated in experimental autoimmune encephalomyelitis (EAE), a mouse model of multiple sclerosis. […] A group of ten naïve C57BL/6 mice was maintained as a negative control. […] Mouse is not alert. 5.0—Death or severe paralysis resulting in euthanasia.
# [4] = target: TXK (Homo sapiens (Human), UniProt P42681); test: Kinase inhibition assay (Nanosyn, microfluidic detection), TXK; format: biochemical; details: 1 mM ATP, 3 hours at 25° C.
# Chain of TXK (P42681 whole entry): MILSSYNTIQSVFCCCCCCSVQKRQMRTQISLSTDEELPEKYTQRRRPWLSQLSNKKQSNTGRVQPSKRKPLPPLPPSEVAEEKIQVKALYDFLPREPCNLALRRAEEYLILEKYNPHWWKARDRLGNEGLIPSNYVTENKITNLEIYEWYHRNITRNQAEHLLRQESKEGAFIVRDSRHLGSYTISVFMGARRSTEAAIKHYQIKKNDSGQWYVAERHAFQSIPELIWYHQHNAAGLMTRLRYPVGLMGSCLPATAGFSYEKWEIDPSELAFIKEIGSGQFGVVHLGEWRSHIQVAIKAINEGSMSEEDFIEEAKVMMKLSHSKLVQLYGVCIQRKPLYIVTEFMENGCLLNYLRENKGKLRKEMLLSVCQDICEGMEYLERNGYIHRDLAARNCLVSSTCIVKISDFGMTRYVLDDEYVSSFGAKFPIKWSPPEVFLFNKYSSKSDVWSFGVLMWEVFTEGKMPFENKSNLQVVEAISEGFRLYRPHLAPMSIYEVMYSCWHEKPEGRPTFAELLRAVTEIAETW
# Chain of BTK (Q06187 whole entry): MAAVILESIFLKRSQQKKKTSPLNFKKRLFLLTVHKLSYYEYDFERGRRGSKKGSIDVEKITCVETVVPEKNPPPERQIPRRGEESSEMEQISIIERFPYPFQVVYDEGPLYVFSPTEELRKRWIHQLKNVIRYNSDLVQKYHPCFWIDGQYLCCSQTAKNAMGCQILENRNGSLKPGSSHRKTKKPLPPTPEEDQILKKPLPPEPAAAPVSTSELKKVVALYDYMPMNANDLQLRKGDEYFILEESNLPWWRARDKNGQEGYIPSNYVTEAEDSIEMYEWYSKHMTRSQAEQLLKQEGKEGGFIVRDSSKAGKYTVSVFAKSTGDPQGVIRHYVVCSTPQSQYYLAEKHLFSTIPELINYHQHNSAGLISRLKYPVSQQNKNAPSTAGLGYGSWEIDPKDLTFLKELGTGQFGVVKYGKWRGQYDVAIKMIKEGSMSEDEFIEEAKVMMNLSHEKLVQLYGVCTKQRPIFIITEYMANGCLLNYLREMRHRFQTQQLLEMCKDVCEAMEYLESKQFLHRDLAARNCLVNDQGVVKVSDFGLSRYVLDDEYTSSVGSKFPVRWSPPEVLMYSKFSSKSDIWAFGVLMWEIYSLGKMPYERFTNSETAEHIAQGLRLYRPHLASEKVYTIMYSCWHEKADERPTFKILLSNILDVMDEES
SMILES,IC50 [1],IC50 [2],IC50 [4],also measured
C=CC(=O)N1CC[C@]2(C1)C[C@H](n1c(NC(=O)c3cc4c(s3)CCCC4)nc3ccccc31)C2 [Compound 80],> 300 nM,,,
C=CC(=O)N1CC[C@]2(C1)C[C@@H](n1c(NC(=O)c3ccc(-c4cnco4)s3)nc3c(Cl)cccc31)C2 [Compound 72],> 300 nM,,,
C=CC(=O)N1CC[C@]2(C1)C[C@H](n1c(NC(=O)c3cc4ccccc4s3)nc3ccccc31)C2 [Compound 81],> 300 nM,,,
C=CC(=O)N1CC[C@]2(C1)C[C@H](n1c(NC(=O)c3ccc(-c4cnco4)s3)nc3ccccc31)C2 [Compound 16],,0.94 nM,,"disease severity (EAE score) ([3]; in PEG 400, treated after onset of symptoms, mice): greatly attenuated; symptoms of neurological deficit ([3]; versus vehicle treated animals that rapidly progressed): minimal symptoms"
C=CC(=O)N1CCC2(CC1)CC(n1c(NC(=O)c3ccc(C(F)F)s3)nc3cc(CN[C@@H](C)C(C)(C)C)ccc31)C2 [Compound 12],> 300 nM,,,
C=CC(=O)N1CC[C@]2(C1)C[C@@H](n1c(NC(=O)c3cnc(C(C)C)s3)nc3cc(CN[C@@H](C)C(C)(C)C)ccc31)C2 [Compound 11],> 300 nM,,,
C=CC(=O)N1CC[C@]2(C1)C[C@H](n1c(NC(=O)c3ccc(NC(=O)C4CCOCC4)s3)nc3ccccc31)C2 [Compound 112],> 300 nM,,,
C=CC(=O)N1CC[C@]2(C1)C[C@@H](n1c(NC(=O)c3ccc(-c4cnco4)s3)nc3c(OC)cccc31)C2 [Compound 88],> 300 nM,,,
C=CC(=O)N1CC[C@]2(C1)C[C@H](n1c(NC(=O)c3ccc(-c4ccnc(OC)c4)s3)nc3ccccc31)C2 [Compound 96],,1.55 nM,0.35 nM,
C=CC(=O)N1CC[C@]2(C1)C[C@H](n1c(NC(=O)c3ccc(-c4cnco4)s3)nc3ccc(F)cc31)C2 [Compound 58],,1.32 nM,0.29 nM,
C=CC(=O)N1CC2(CC(n3c(NC(=O)c4ccc(C(F)F)s4)nc4cc(CN[C@@H](C)C(C)(C)C)ccc43)C2)C1 [Compound 1],,378 nM,52.6 nM,
C=CC(=O)N1CC[C@]2(C1)C[C@H](n1c(NC(=O)c3ccc(-c4cnccn4)s3)nc3ccccc31)C2 [Compound 132],,10.3 nM,1.99 nM,
C=CC(=O)N1CC[C@]2(C1)C[C@H](n1c(NC(=O)c3ccno3)nc3ccccc31)C2 [Compound 45],60.3 nM,,,
C=CC(=O)N1CC[C@]2(C1)C[C@H](n1c(NC(=O)c3ccc(C)nc3)nc3cc(CN[C@@H](C)C(C)(C)C)ccc31)C2 [Compound 26],,2.84 nM,0.99 nM,
C#Cc1ccc(C(=O)Nc2nc3cc(CN[C@@H](C)C(C)(C)C)ccc3n2[C@H]2C[C@@]3(CCN(C(=O)C=C)C3)C2)s1 [Compound 28],,1.7 nM,0.63 nM,
C=CC(=O)N1CC[C@]2(C1)C[C@H](n1c(NC(=O)c3ccc(C(F)F)s3)nc3cc(CN[C@H]4C[C@H](O)C4)ccc31)C2 [Compound 36],,1.14 nM,0.63 nM,
C=CC(=O)N1CC[C@]2(C1)C[C@H](n1c(NC(=O)c3ccc(-c4ccc(=O)[nH]c4)s3)nc3ccccc31)C2 [Compound 99],,10.2 nM,1.01 nM,
C=CC(=O)N1CC[C@]2(C1)C[C@H](n1c(NC(=O)c3ccc(C(=O)O)s3)nc3ccccc31)C2 [Compound 100],> 300 nM,,,
C=CC(=O)N1CC[C@]2(C1)C[C@H](n1c(NC(=O)c3ccc(OC)nc3)nc3ccccc31)C2 [Compound 55],,27.4 nM,3.41 nM,
C=CC(=O)N1CC[C@]2(C1)C[C@H](n1c(NC(=O)c3ccn(C)c(=O)c3)nc3ccccc31)C2 [Compound 84],,65.3 nM,19.8 nM,
C=CC(=O)N1CC[C@]2(C1)C[C@H](n1c(NC(=O)c3ccc(-c4ccc(N)nc4)s3)nc3ccccc31)C2 [Compound 31],,5.38 nM,1.03 nM,
C=CC(=O)N1CC[C@]2(C1)C[C@H](n1c(NC(=O)c3ccc(-c4c[nH]nc4C)s3)nc3ccccc31)C2 [Compound 156],,0.7 nM,0.24 nM,
C=CC(=O)N1CC[C@]2(C1)C[C@H](n1c(NC(=O)c3ccc(-c4ccnnc4)s3)nc3ccccc31)C2 [Compound 114],,3.31 nM,0.22 nM,
C=CC(=O)N1CC[C@]2(C1)C[C@H](n1c(NC(=O)c3ccc(-c4ccncc4)s3)nc3ccccc31)C2 [Compound 110],,1.11 nM,0.18 nM,
